What all share (type): functional
What all share (conditions): Enterobacteria phage phiX174

In assay [1] the test system is Nucleic Acid. Nature of the assay: Percent DNA cleavage induced by administering the compound (0.1 uM) within 24 hr to form RfI DNA was determined by using phiX174 bacteriophage DNA.
For assay [2], the system named is Nucleic Acid. Nature of the assay: Percent DNA cleavage induced by administering the compound (0.1 uM) within 24 hr to form RfII DNA was determined by using phiX174 bacteriophage DNA.
Assay [3] deals with Nucleic Acid. Nature of the assay: Percent DNA cleavage induced by administering the compound (0.1 uM) within 24 hr to form RfIII DNA was determined by using phiX174 bacteriophage DNA.
The test system of assay [4] is Nucleic Acid. Kind of assay: Percent DNA cleavage induced by administering the compound (0.1 uM) within 48 hr to form RfI DNA was determined by using phiX174 bacteriophage DNA.
The subject of assay [5] is Nucleic Acid. Nature of the assay: Percent DNA cleavage induced by administering the compound (0.1 uM) within 48 hr to form RfII DNA was determined by using phiX174 bacteriophage DNA.
Assay [6] has as its system Nucleic Acid. Nature of the assay: Percent DNA cleavage induced by administering the compound (0.1 uM) within 48 hr to form RfIII DNA was determined by using phiX174 bacteriophage DNA.
The subject of assay [7] is Nucleic Acid. Kind of assay: Percent DNA cleavage induced by administering the compound (0.1 uM), additive 1000 uM distamycin A within 24 hr to form RfI DNA was determined by using phiX174 bacteriophage DNA.
Assay [8] has as its system Nucleic Acid. Kind of assay: Percent DNA cleavage induced by administering the compound (0.1 uM), additive 1000 uM distamycin A within 24 hr to form RfII DNA was determined by using phiX174 bacteriophage DNA.
In assay [9] the test system is Nucleic Acid. Nature of the assay: Percent DNA cleavage induced by administering the compound (0.1uM), additive 10 uM distamycin A within 24 hr to form RfI DNA was determined by using phiX174 bacteriophage DNA.
Assay [10] concerns Nucleic Acid. Nature of the assay: Percent DNA cleavage induced by administering the compound (0.1 uM), additive 10 uM distamycin A within 24 hr to form RfII DNA was determined by using phiX174 bacteriophage DNA.
Assay [11] concerns Nucleic Acid. Nature of the assay: Percent DNA cleavage induced by administering the compound (0.1 uM), additive 10 uM distamycin A within 24 hr to form RfIII DNA was determined by using phiX174 bacteriophage DNA.
The test system of assay [12] is Nucleic Acid. Kind of assay: Percent DNA cleavage induced by administering the compound (0.1 uM), additive Ar/N2 within 12 hr to form RfI DNA was determined by using phiX174 bacteriophage DNA.
Assay [13] concerns Nucleic Acid. Kind of assay: Percent DNA cleavage induced by administering the compound (0.1 uM), additive Ar/N2 within 12 hr to form RfII DNA was determined by using phiX174 bacteriophage DNA.
Assay [14] deals with Nucleic Acid. Nature of the assay: Percent DNA cleavage induced by administering the compound (0.1 uM), additive Ar/N2 within 12 hr to form RfIII DNA was determined by using phiX174 bacteriophage DNA.
Assay [15] relates to Nucleic Acid. Nature of the assay: Percent DNA cleavage induced by administering the compound (0.1 uM), additive 1000 uM distamycin A within 24 hr to form RfIII DNA was determined by using phiX174 bacteriophage DNA.
For assay [16], the system named is Nucleic Acid. Kind of assay: Percent DNA cleavage induced by administering the compound (0.1 uM), additive 100 uM distamycin A within 24 hr to form RfI DNA was determined by using phiX174 bacteriophage DNA.
Assay [17] deals with Nucleic Acid. Nature of the assay: Percent DNA cleavage induced by administering the compound (0.1 uM), additive 100 uM distamycin A within 24 hr to form RfII DNA was determined by using phiX174 bacteriophage DNA.
The subject of assay [18] is Nucleic Acid. Kind of assay: Percent DNA cleavage induced by administering the compound (0.1 uM), additive 100 uM distamycin A within 24 hr to form RfIII DNA was determined by using phiX174 bacteriophage DNA.
Assay [19] has as its system Nucleic Acid. Nature of the assay: Percent DNA cleavage induced by administering the compound (0.1 uM), additive 10 mM aliquots of metal chlorides M2+/3- within 12 hr to form RfI DNA was determined by using phiX174 bacteriophage DNA.
Assay [20] concerns Nucleic Acid. Nature of the assay: Percent DNA cleavage induced by administering the compound (0.1 uM), additive 10 mM aliquots of metal chlorides M2+/3- within 12 hr to form RfII DNA was determined by using phiX174 bacteriophage DNA.
Assay [21] has as its system Nucleic Acid. Nature of the assay: Percent DNA cleavage induced by administering the compound (0.1 uM), additive 10 mM aliquots of metal chlorides M2+/3- within 12 hr to form RfIII DNA was determined by using phiX174 bacteriophage DNA.
Assay [22] relates to Nucleic Acid. Nature of the assay: Percent DNA cleavage induced by administering the compound (1.0 uM) within 12 hr to form RfI DNA was determined by using phiX174 bacteriophage DNA.
The subject of assay [23] is Nucleic Acid. Nature of the assay: Percent DNA cleavage induced by administering the compound (1.0 uM) within 12 hr to form RfII DNA was determined by using phiX174 bacteriophage DNA.
The test system of assay [24] is Nucleic Acid. Nature of the assay: Percent DNA cleavage induced by administering the compound (1.0 uM) within 12 hr to form RfIII DNA was determined by using phiX174 bacteriophage DNA.
Assay [25] deals with Nucleic Acid. Nature of the assay: Percent DNA cleavage induced by administering the compound (0.1 uM) within 12 hr to form RfI DNA was determined by using phiX174 bacteriophage DNA.
Assay [26] relates to Nucleic Acid. Kind of assay: Percent DNA cleavage induced by administering the compound (0.1 uM) within 12 hr to form RfII DNA was determined by using phiX174 bacteriophage DNA.
Assay [27] relates to Nucleic Acid. Nature of the assay: Percent DNA cleavage induced by administering the compound (0.1 uM) within 12 hr to form RfIII DNA was determined by using phiX174 bacteriophage DNA.
Assay [28] deals with Nucleic Acid. Nature of the assay: Percent DNA cleavage induced by administering the compound within 12 hr to form RfI DNA was determined by using phiX174 bacteriophage DNA.
The subject of assay [29] is Nucleic Acid. Kind of assay: Percent DNA cleavage induced by administering the compound (1.0 uM) within 12 hr to form RfIII DNA was determined by using phiX174 bacteriophage DNA by using phiX174 bacteriophage DNA.
Assay [30] deals with Nucleic Acid. Kind of assay: Percent DNA cleavage induced by administering the compound (0.1 uM) within 24hto form RfIII DNA was determined by using phiX174 bacteriophage DNA.
The subject of assay [31] is Nucleic Acid. Kind of assay: Percent DNA cleavage induced by administering the compound (1.0 uM) within 48 hr to form RfI DNA was determined by using phiX174 bacteriophage DNA.
Assay [32] has as its system Nucleic Acid. Kind of assay: Percent DNA cleavage induced by administering the compound (1.0 uM) within 48 hr to form RfII DNA was determined by using phiX174 bacteriophage DNA.
For assay [33], the system named is Nucleic Acid. Nature of the assay: Percent DNA cleavage induced by administering the compound (1.0 uM) within 48 hr to form RfIII DNA was determined by using phiX174 bacteriophage DNA.

The values that follow come from ChEMBL document CHEMBL1135084, “DNA cleavage by aromatic amines” (Bioorg Med Chem Lett, 2002).

The structures appear in SMILES notation. Values joined by “and” are separate entries in the source; they are usually repeats but may differ in a detail not shown here. Equal entries are not always repeated.

Consider `Nc1cccc(C(=O)Nc2cc(NC(=O)c3ccccc3)cc(C(=O)NCCCNC(=O)c3cc(NC(=O)c4ccccc4)cc(NC(=O)c4cccc(N)c4)c3)c2)c1`, for which the Cleavage with Nucleic Acid [1] amounted to 24%; in the assay with Nucleic Acid [2], 76%; in the assay with Nucleic Acid [3] it was 0%; in the assay on Nucleic Acid [4] it was 1%; in the assay with Nucleic Acid [5], 99%; in the assay with Nucleic Acid [6], 0%. The Cleavage in the assay with Nucleic Acid [7] came to 95%; with Nucleic Acid [8], 5%; in the assay with Nucleic Acid [9], 25%; with Nucleic Acid [10] it was 75%; with Nucleic Acid [11] it was 0%; with Nucleic Acid [12], 26%. Besides, the Cleavage with Nucleic Acid [13] was found to be 74%; with Nucleic Acid [14] it was 0%; in the assay on Nucleic Acid [15], 0%; in the assay on Nucleic Acid [16], 65%; in the assay with Nucleic Acid [17], 35%; in the assay with Nucleic Acid [18], 0%. The figures for the Cleavage with Nucleic Acid [19], with Nucleic Acid [20] and in the assay on Nucleic Acid [21] were 27%, 73% and 0%, respectively.
With `CCOC(=O)c1cc(NC(=O)c2cccc([N+](=O)[O-])c2)cc(NC(=O)c2cc(N)cc([N+](=O)[O-])c2)c1`, the Cleavage is 44% with Nucleic Acid [22], 56% in the assay on Nucleic Acid [23] and 0% with Nucleic Acid [24].
On to `Nc1cccc(C(=O)Nc2cc(NC(=O)c3ccccc3)cc(C(=O)NCCCCCCNC(=O)c3cc(NC(=O)c4ccccc4)cc(NC(=O)c4cccc(N)c4)c3)c2)c1`, for which the Cleavage with Nucleic Acid [25] amounted to 38%; with Nucleic Acid [26] it was 62%; in the assay on Nucleic Acid [27], 0%.
Take `Nc1cccc(C(=O)Nc2cc(NC(=O)c3ccccc3)cc(C(=O)NCNC(=O)c3cc(NC(=O)c4ccccc4)cc(NC(=O)c4cccc(N)c4)c3)c2)c1`: the Cleavage in the assay with Nucleic Acid [1] was 0%; in the assay on Nucleic Acid [2] it was 100%; with Nucleic Acid [3] it was 0%.
In the case of `Nc1cccc(C(=O)Nc2cc(NC(=O)c3ccccc3)cc(C(=O)NCCNC(=O)c3cc(NC(=O)c4ccccc4)cc(NC(=O)c4cccc(N)c4)c3)c2)c1`, the Cleavage in the assay with Nucleic Acid [1] is 35%; in the assay on Nucleic Acid [2], 65%; with Nucleic Acid [3], 0%; with Nucleic Acid [4], 7%; in the assay on Nucleic Acid [5], 93%; in the assay on Nucleic Acid [6], 0%.
`Nc1cc(C(=O)Nc2cc(NC(=O)c3ccccc3)cc(C(=O)NCCNC(=O)c3cc(NC(=O)c4ccccc4)cc(NC(=O)c4cc(N)cc([N+](=O)[O-])c4)c3)c2)cc([N+](=O)[O-])c1`: the Cleavage in the assay with Nucleic Acid [1] turned out to be 36%; in the assay with Nucleic Acid [2] it was 64%; in the assay on Nucleic Acid [3], 0%; in the assay on Nucleic Acid [4], 10%; in the assay on Nucleic Acid [5] it was 90%; in the assay with Nucleic Acid [6], 0%.
`CCOC(=O)c1cc(N)cc([N+](=O)[O-])c1`: the results for the Cleavage in the assay on Nucleic Acid [28], in the assay with Nucleic Acid [23] and with Nucleic Acid [29] were 90%, 10% and 0%, respectively.
With `COc1cc(N)cc(C(=O)Nc2cc(NC(=O)c3ccccc3)cc(C(=O)NCCNC(=O)c3cc(NC(=O)c4ccccc4)cc(NC(=O)c4cc(N)cc(OC)c4)c3)c2)c1`, the Cleavage in the assay on Nucleic Acid [30] was 0% and 1%.
Turning to `Nc1cccc(C(=O)Nc2cc(NC(=O)c3ccccc3)cc(C(=O)NCCCCCNC(=O)c3cc(NC(=O)c4ccccc4)cc(NC(=O)c4cccc(N)c4)c3)c2)c1`, the Cleavage in the assay with Nucleic Acid [1] came out at 35%; in the assay on Nucleic Acid [2] it was 65%; with Nucleic Acid [3] it was 0%.
With `CCOC(=O)c1cc(NC(=O)c2cc(N)cc(OC)c2)cc(NC(=O)c2cccc([N+](=O)[O-])c2)c1`, the Cleavage in the assay on Nucleic Acid [22] worked out at 11%; in the assay on Nucleic Acid [23], 89%; in the assay with Nucleic Acid [24], 0%.
Consider `CCOC(=O)c1cc(NC(=O)c2cccc(N)c2)cc(NC(=O)c2cccc([N+](=O)[O-])c2)c1`, for which the Cleavage turned out to be 0% with Nucleic Acid [31]; 75% in the assay with Nucleic Acid [32]; 25% with Nucleic Acid [33]; 1% with Nucleic Acid [22]; 99% in the assay with Nucleic Acid [23]; 0% in the assay on Nucleic Acid [24].
Regarding `Nc1cccc(C(=O)Nc2cc(NC(=O)c3ccccc3)cc(C(=O)NCCCCNC(=O)c3cc(NC(=O)c4ccccc4)cc(NC(=O)c4cccc(N)c4)c3)c2)c1`, the Cleavage in the assay with Nucleic Acid [25] is 37%; in the assay with Nucleic Acid [26], 63%; in the assay with Nucleic Acid [27], 0%.
